Laboratory results from patent publication US20050272098A1, “Quantitation of endothelial microparticles” (priority 2004, published 2005).
Where “and” joins values, the source holds several entries; their conditions need not be identical. Equal values may be shown once.

Key:
[1] = test system: HCAEC; assay: Release of CAM-specific EMP from TNF-α-activated HCAEC, two-color flow cytometry with TruCount beads; assay type: cell-based, human; settings: 24 hours
Description: HCAECs were purchased from Cambrex Bio Science (Walkersville, Md.) and cultured according to the supplier's specifications. All experiments were performed on confluent cells. EC were treated with 10 ng/mL TNF-α alone or with the addition of fluvatstain (0.1 μmol/mL) or ROK inhibitor, Y-27632 (10 μmol M/L). Controls were un-treated. After 24 hours culture supernatants from flasks containing HCAEC were collected and centrifuged for 30 min at 17,570×g, (4° C.). Pellets were re-suspended in 1 mL of PBS and were analyzed on the same day. For single platform method, 3 μL each of FITC-conjugated and PE-conjugated monoclonal antibodies against the above mentioned CAMs plus 50 μL of re-suspended pellet were added to tubes (two antibodies/tube) preloaded with fluorescent TruCount™ bead lyophilized pellets (Becton Dickinson Biosciences, San Jose, Calif.). Tubes were incubated for 20 min at room temperature. Analysis of EMPs was performed using a FACScan Flow Cytometer (Becton Dickinson Biosciences, San Jose, Calif.). The EMPs were excited with 488 nm light from a 15 mW argon laser. Logarithmic green and red fluorescences of FITC and PE were measured through 530/30 nm and 585/42 nm bandpass filters, respectively. Data from 2,000 events were acquired and analyzed with the use of CELLQuest™ software (version 3.3, Becton Dickinson). The absolute number of EMPs was calculated from the appropriate dot plot values entered into the following formula: [formula] The total number of beads per tube is supplied by the manufacturer and varies among lot numbers. RhoA Activity Statistical analysis was performed using SPSS 10.0.7 statistical software (SPSS Inc., Chicago, Ill.). Values are stated as mean±SEM. One-way ANOVA was used to compare means from three or more groups. In cases where the data were not normally distributed, the Mann-Whitney rank sum test was used. A value of p<0.05 was considered as significant for all tests.

[2] = test system: RhoA; assay: RhoA activity pull-down assay (Rhotekin Rho Binding Domain agarose, western blot) in HCAEC; assay type: cell-based, human; settings: TNF-α 10 ng/mL, 24 hours
Description: HCAECs were purchased from Cambrex Bio Science (Walkersville, Md.) and cultured according to the supplier's specifications. All experiments were performed on confluent cells. EC were treated with 10 ng/mL TNF-α alone or with the addition of fluvatstain (0.1 μmol/mL) or ROK inhibitor, Y-27632 (10 μmol M/L). Controls were un-treated. After 24 hours culture supernatants from flasks containing HCAEC were collected and centrifuged for 30 min at 17,570×g, (4° C.). Pellets were re-suspended in 1 mL of PBS and were analyzed on the same day. RhoA activity was determined by a pull-down assay. The cell lysates were incubated with Rhotekin Rho Binding Domain agarose for 45 minutes. The agarose beads were collected and electrophoresed in 8-16% SDS-PAGE gel (Cambrex, Rockland, Me.). GDP and GTP-labeling of cell lysates served as negative and positive controls, respectively. Western blotting was performed with RhoA antibody at a dilution of 1:200. The blot densities were analyzed with Mocha Image Analysis (version 1.2.10).

[3] = HCAEC, TNF-α 10 ng/mL plus Fluvastatin 0.1 μM/L, mean ± SEM
[4] = HCAEC, TNF-α 10 ng/mL plus Fluvastatin 0.1 μM/L, mean ± SEM, listed as Flu
[5] = HCAEC, TNF-α 10 ng/mL plus Y-27632 (10 μmol M/L), mean ± SEM
[6] = HCAEC, TNF-α 10 ng/mL alone, mean ± SEM, six experiments
[7] = HCAEC, TNF-α 10 ng/mL, versus control, not significant

`CC(C)n1c(/C=C/C(O)CC(O)CC(=O)O)c(-c2ccc(F)cc2)c2ccccc21` (centres unmarked) [Fluvastatin] was tested, and the “absolute count of EMP, CD51 (Vitronectin)” value (shortened to “absolute count of EMP, CD51”) [1, 3] was 43 ±7.3 ×10^6/mL, the “absolute count of EMP, CD62E (ELAM)” value [1, 3] was 80 ± 7 ×10^6/mL and the “absolute count of EMP, CD105 (Endoglin)” value [1, 3] was 45±7.6 ×10^6/mL. The “absolute count of EMP, CD31 (PECAM-1)” value [1, 4] was 231 ± 80 ×10^6/mL, the “absolute count of EMP, CD51” value [1, 4] was 43 ± 7 ×10^6/mL and the “absolute count of EMP, CD 54 (ICAM-1)” value [1, 4] was 125 ± 35 ×10^6/mL. For the same compound, the “absolute count of EMP, CD105 (Endoglin)” value [1, 4] was 45 ± 8 ×10^6/mL, the “absolute count of EMP, CD106 (VCAM-1)” value [1, 4] was 167 ± 45 ×10^6/mL and the “suppression of CD62+ EMP” value ([1]; TNF-α-activated HCAEC, versus TNF-α alone, not statistically significant) was 19%.

For `C[C@@H](N)[C@H]1CC[C@H](C(=O)Nc2ccncc2)CC1` [Y-27632], the “absolute count of EMP, CD51” value [1, 5] was 44 ± 10 ×10^6/mL, the “absolute count of EMP, CD62E (ELAM)” value [1, 5] was 65 ± 13 ×10^6/mL and the “absolute count of EMP, CD105 (Endoglin)” value [1, 5] was 56±13 ×10^6/mL.

For tumor necrosis factor-α [TNF-α], the “absolute count of EMP, CD31 (PECAM-1)” value [1, 6] was 233±77 ×10^6/mL, the “absolute count of EMP, CD51” value [1, 6] was 76.4±46 ×10^6/mL and 76 ± 46 ×10^6/mL and the “absolute count of EMP, CD 54 (ICAM-1)” value [1, 6] was 129 ± 44 ×10^6/mL. For the same compound, the “absolute count of EMP, CD62E (ELAM)” value [1, 6] was 99 ± 3 ×10^6/mL, the “absolute count of EMP, CD105 (Endoglin)” value [1, 6] was 124±34 ×10^6/mL and the “increase of CD54 positive EMP” value [1, 7] was 57%. For the same compound, the “increase of CD62 positive EMP” value [1, 7] was 15% and the RhoA activation [2] was “induced”.
